Measured values from patent US9034863B2, “Compositions and methods for inhibiting entry of a hepatic virus” (The Board of Trustees of the University of Illinois, priority 2008, dated 2015).
Like-named read-outs stand apart in the source and are kept apart here.

Legend:
[1] = test system: HCVcc; assay: HCV foci reduction assay, acute HCVcc infection of Huh7 cells; format: cell-based, Hepatitis C virus (HCV); conditions: for inhibition at 12.5 µM / inhibition at 25 µM: Hepatitis C virus, Huh-7, read-out: inhibition of HCV foci formation
[2] = test system: HCVcc JFH-1; assay: Acute HCVcc infection of Huh7 cells, HCV RNA by RT-qPCR; format: cell-based, Hepatitis C virus (HCV)
Procedure: For experiments in growing cells, Huh7 cells were seeded 24 hours prior to use at 4×10^3 cells in each well of a 96-well plate (BD Biosciences, San Jose, Calif.). For experiments in non-growing cells, Huh7 cells were seeded in 96-well BIOCOAT culture plates (BD Biosciences) at a density of 8×10^3 cells/well in cDMEM. Upon reaching 90% confluence, media was replaced with 200 μl cDMEM supplemented with 1% (v/v) DMSO (Sigma), and cells were cultured for an additional 20 days, replacing medium every 2 days (Sainz, Jr. & Chisari (2006) J. Virol. 80:10253-7; Choi, et al. (2009) Xenobiotica 39:205-17). Cells were infected with HCVcc JFH-1 at an MOI of 1.0 or 0.1 FFU/cell for 12 hours. Cells were mock-treated or treated with increasing concentrations of ezetimibe 6 hours prior to infection (PRE), during the time of infection for 12 hours (CO), or immediately following infection for 60 hours (POST). For RT-qPCR analysis, total cellular RNA was extracted in 1× Nucleic Acid Purification Lysis Solution (Applied Biosystems, Foster City, Calif.) from triplicate wells at indicated times post infection. For HCV E2-positive foci assay analysis, medium was removed and cells were fixed with 4% paraformaldehyde (w/v) (Sigma) 72 hours post-infection and immunohistochemical staining for HCV E2 was performed as described herein.
Total cellular RNA was purified using an ABI PRISM™ 6100 Nucleic Acid PrepStation (Applied Biosystems), as per the manufacturer's instructions. One μg of purified RNA was used for cDNA synthesis using the TAQMAN reverse transcription reagents (Applied Biosystems), followed by SYBR green RT-qPCR using an Applied Biosystems 7300 real-time thermocycler (Applied Biosystems). […] HCV JFH-1 and human GAPDH RNA transcript levels were determined relative to a standard curve derived from serial dilutions of plasmid containing the JFH-1 HCV cDNA or the human GAPDH coding sequence, respectively. […]
Likewise dose-dependent and time-of-addition-dependent inhibition of HCV infection was observed when HCV RNA levels were quantified by RT-qPCR 24, 48 and 72 hours p.i.

[3] = test system: Dengue virus (DNV); assay: Dengue virus plaque formation; format: cell-based; conditions: 12.5 or 25 μM
Procedure: To ensure that the inhibition observed was not due to ezetimibe-induced changes in cell proliferation or cytotoxicity, cellular ATP was measured as a read-out of Huh7 cell viability and proliferation and cellular toxicity by adenylate kinase release following treatment with increasing doses of ezetimibe. […] Furthermore, to test the specificity of the observed HCV inhibition, the effect of ezetimibe on entry of another flavivirus, Dengue virus (DNV), was assessed.

[4] = test system: HCVcc; assay: Secretion of infectious HCVcc, extracellular infectivity titration; format: cell-based, Hepatitis C virus (HCV); conditions: 30 μM, 24-96 hours post-treatment
Procedure: Cell supernatants were serially diluted 10-fold in cDMEM and 100 μl was used to infect, in triplicate, 4×10^3 naïve Huh7 cells per well in 96-well plates (BD Biosciences). The inoculum was incubated with cells for 24 hours at 37° C. and then overlayed with 150 μl complete DMEM containing 0.4% methylcellulose (w/v) (Fluka BioChemika, Switzerland) to give a final concentration of 0.25% methylcellulose. Seventy-two hours post-infection, medium was removed, cells were fixed with 4% paraformaldehyde (Sigma) and immunohistochemical staining for HCV E2 was performed. […] The HCV E2 glycoprotein was detected by incubation at room temperature with 1×PBS containing 0.5% (v/v) TRITON X-100 and 3% (w/v) BSA and a 1:500 dilution of the human monoclonal anti-HCV E2 antibody C1. Bound C1 was subsequently detected by a 1 hour incubation with a 1:1000 dilution of an HRP-conjugated anti-human antibody (Pierce, Rockford, Ill.) followed by a 30 minute incubation with an AEC detection substrate (BD Biosciences). […] Viral infectivity titers are expressed as FFU per milliliter of supernatant (FFU/ml), determined by the average number of E2-positive foci detected in triplicate samples at the highest HCV-positive dilution.
Huh7 cultures were inoculated with HCVcc at an MOI of 0.01 FFU cell-1. […] Infectivity titers are expressed as mean FFU/ml±SD for triplicate samples.

[5] = test system: HCV; assay: HCV infection initiation in chimeric mice transplanted with human hepatocytes; format: in vivo
[6] = co-incubated with HCVcc for 12 h
[7] = pre-treatment 6 h prior to infection, compared to untreated cultures

## O=C1[C@H](CC[C@H](O)c2ccc(F)cc2)[C@@H](c2ccc(O)cc2)N1c1ccc(F)cc1 [ezetimibe, 1-(4-fluorophenyl)-(3R)-[3-(4-fluorophenyl)-(3S)-hydroxypropyl]-(45)-(4-hydroxyphenyl)-2-azetidinone]
[1]; [6]
  inhibition at 12.5 µM: 90%
  inhibition at 25 µM: 99%
[1]; [7]
  inhibition at 12.5 µM: 85%
  inhibition at 25 µM: 95%
[1]; added to cells post-infection
  degree of inhibition of HCV foci formation: greatly reduced
[2]; addition post-infection, 72 hours p.i.
  inhibition of HCV infection (HCV RNA levels): ineffective
[2]; co-treatment
  inhibition of HCV infection (HCV RNA levels): potently inhibited HCV infection
[2]; pre-treatment with 25 μM for 6 hours before infection
  protection of cells from subsequent infection, duration: at least 48 hours
[3]
  reduction in DNV plaque formation: no significant reduction
[4]
  secretion of infectious HCVcc (infectivity titers): did not inhibit secretion of infectious HCVcc
[5]
  HCV infection initiation: inhibits HCV infection initiation
